Assay results taken from PMC9737972, “Dual LSD1 and HDAC6 Inhibition Induces Doxorubicin Sensitivity in Acute Myeloid Leukemia Cells” (Cancers, 2022).

Columns and labels:
[1] = target: T1, HDAC8 (Homo sapiens, UniProt Q9BY41); experiment: Cellular thermal shift assay (CETSA), HDAC8; type: cell-based; conditions: THP-1 cells, 1 h; 4 μM (methods, Figure 2), Figure S14 legend 500 nM
T1 construct: endogenous in cells; host or cells: THP-1
T1 sequence (Q9BY41 1-377): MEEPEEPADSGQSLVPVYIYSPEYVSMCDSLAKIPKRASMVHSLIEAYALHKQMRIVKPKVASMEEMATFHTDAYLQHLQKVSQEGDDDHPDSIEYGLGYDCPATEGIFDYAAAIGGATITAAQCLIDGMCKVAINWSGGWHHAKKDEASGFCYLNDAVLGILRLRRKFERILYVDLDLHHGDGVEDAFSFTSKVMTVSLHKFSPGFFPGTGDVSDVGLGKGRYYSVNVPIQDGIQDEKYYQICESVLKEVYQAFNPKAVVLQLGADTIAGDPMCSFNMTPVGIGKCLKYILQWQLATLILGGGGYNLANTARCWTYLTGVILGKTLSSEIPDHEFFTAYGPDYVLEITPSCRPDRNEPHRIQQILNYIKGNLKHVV
Protocol: THP-1 cells, 1 × 10^7 cells at a density of 1 × 10^6 cells/mL, were treated with 4 μM of test compounds (1 h, 37 °C, 5% CO2). Cells were centrifuged, and the pellet was resuspended with 1 × Phosphate Buffer Saline (Gibco, Grand Island, NY, USA, #10010023) containing 1 × Protease Inhibitor Cocktail (Cell Signaling Technology, Beverly, MA, USA, #5871) and 1 mM phenylmethylsulfonyl fluoride (PMSF, Sigma Aldrich, St. Louis, MO, USA, #10837091001). The suspension volume was divided equally and heated for 3 min at 43–64 °C in a T100 Thermal Cycler (Bio-rad, Hercules, CA, USA). For protein extraction, cells were snap-frozen using liquid nitrogen, thawed twice (25 °C, 1 min), then centrifuged (20,000× g, 15 min, 4 °C). Following centrifugation, protein containing supernatants were denatured at 70 °C for 10 min and loaded on SDS-PAGE gels (Bio-Rad, Hercules, CA, USA, 161-0317). […] The signal was detected with BIORAD Chemi-Doc XRS+ System and by using Immobilon Forte Western HRP Substrate (WBLUF0500).

[2] = test system: THP-1 cells; experiment: Combination treatment with antileukemic drugs, THP-1 cell viability; type: cell-based; conditions: compound 5 μM 72 h, then compound + etoposide 0.2 μM 48 h
[3] = test system: MDA-MB-231; experiment: Wound healing assay, MDA-MB-231; type: cell-based; conditions: 4 μM, 72 h, 1% FBS
Protocol: (§1) Figure S20. Wound healing assay with iDual and ricolinostat. (A) MDA-MB-231 and (B) DU-145 […]
(§2) and ricolinostat for 72 h cells grown in relative medium with (1%) FBS conditions. Wound healing is photographed with Nikon Eclipse TS 100 microscope. Wound/healed area is quantified using Image […]

[4] = target: LSD1 (Homo sapiens, UniProt O60341); experiment: Cellular thermal shift assay (CETSA), LSD1; type: cell-based; set-up: endogenous in cells; host or cells: THP-1; conditions: THP-1 cells, 1 h; 4 μM (methods, Figure 2), Figure S14 legend 500 nM
Protocol: THP-1 cells, 1 × 10^7 cells at a density of 1 × 10^6 cells/mL, were treated with 4 μM of test compounds (1 h, 37 °C, 5% CO2). Cells were centrifuged, and the pellet was resuspended with 1 × Phosphate Buffer Saline (Gibco, Grand Island, NY, USA, #10010023) containing 1 × Protease Inhibitor Cocktail (Cell Signaling Technology, Beverly, MA, USA, #5871) and 1 mM phenylmethylsulfonyl fluoride (PMSF, Sigma Aldrich, St. Louis, MO, USA, #10837091001). The suspension volume was divided equally and heated for 3 min at 43–64 °C in a T100 Thermal Cycler (Bio-rad, Hercules, CA, USA). For protein extraction, cells were snap-frozen using liquid nitrogen, thawed twice (25 °C, 1 min), then centrifuged (20,000× g, 15 min, 4 °C). Following centrifugation, protein containing supernatants were denatured at 70 °C for 10 min and loaded on SDS-PAGE gels (Bio-Rad, Hercules, CA, USA, 161-0317). After electrophoresis (100 V and 60 min), proteins were transferred onto PVDF membrane (Bio-Rad #1620177) at 200 mA for 180 min and immunoblotted with primary antibodies (1:10,000 dilution for anti-LSD1 Antibody ab129195 [EPR6825], 1:1000 dilution for Anti-HDAC6 Antibody CST 7558, 1:1000 dilution for Anti-HDAC1 Antibody ab53091, 1:1000 dilution for Anti-HDAC8 Antibody ab187139, 1:5000 dilution for Anti-beta Actin Antibody ab8227) overnight at 4 °C. The next day, membranes were incubated with HRP-conjugated secondary antibodies (1:5000 dilution for Abcam, Cambridge, UK, ab205718) for 1 h at room temperature. The signal was detected with BIORAD Chemi-Doc XRS+ System and by using Immobilon Forte Western HRP Substrate (WBLUF0500).

[5] = test system: DU-145; experiment: Wound healing assay, DU-145; type: cell-based; conditions: 4 μM, 72 h, 1% FBS
Protocol: as §1, §2

[6] = test system: THP-1 cells; experiment: Annexin V/7-AAD staining (flow cytometry); type: cell-based; conditions: sublethal concentration (5 μM)
Protocol: Treated cells were centrifuged at 300× g for 5 min, and the pellet was resuspended with 1% FBS in PBS (5 × 10^5 cells/mL). Annexin V dye (Merck Millipore, Burlington, MA, USA, MCH100105) was mixed with the cell suspension in a 1:1 ratio and the mixture incubated at RT for 20 min.

[7] = test system: LSD1 and HDAC substrates in THP-1 cells; experiment: Western blot of methylation and acetylation levels of LSD1 and HDAC substrates; type: cell-based; conditions: 4 μM
[8] = test system: THP-1 cells; experiment: Caspase 3/7 and 7-AAD staining (flow cytometry); conditions: sublethal concentration (5 μM)

Compound: O=C(NO)c1ccc(CN2CCC(CN[C@@H]3C[C@H]3c3ccccc3)CC2)cc1 (relative stereo) [iDual]
- thermal stabilization of HDAC8 (CETSA) [1]: not significantly stabilized
- cell viability after pre-treatment with compound and co-treatment with etoposide [2]: decreased cell viability was not observed
- wound healing capacity MDA-MB-231 [3]: slowed down
- thermal stabilization of LSD1 (CETSA) [4]: increased thermal stability
- wound healing capacity DU-145 [5]: slowed down
- apoptosis by annexin V/7-AAD staining, compound alone [6]: did not induce apoptosis
- levels of the histone substrate H3K4me2 ([7]; 24 h): increase
- nuclear histone H3 acetylation (H3K18ac and H3K27ac levels), change vs DMSO ([7]; 24 h (ricolinostat 0.75 μM or 4 μM)): two-fold
- apoptosis by caspase activity, compound alone [8]: did not induce apoptosis
